From patent US9192597B2, “Composition for inhibiting vascular aging comprising syringaresinol” (AMOREPACIFIC CORPORATION, priority 2011, dated 2015)

Legend:
PAI-1 = PAI-1 protein expression in aged vascular endothelial cells (Western blot); format: cell-based, human; settings: 50 μM, vs DMSO and young cells, FIG. 6
Protocol: (§1) In order to evaluate whether syringaresinol can restore the declined function of aged vascular cells to that of young vascular cells, the aging of vascular endothelial cells was induced by treating with 50 μM syringaresinol or DMSO as control in substantially the same manner as in Test Example 1. […] As a result, cardiovascular diseases such as arteriosclerosis can occur easily. The cells treated with syringaresinol or DMSO were washed with PBS and lysed with lysis buffer (Sigma), and the supernatant was recovered. Then, protein present in the supernatant was quantitated using Protein Dye Reagent™ (Bio-Rad). 100 μg of the obtained protein was fractionated by size by electrophoresing on 8% SDS-PAGE and transferred onto PVDF membrane (Bio-Rad) for 12 hours with 50 V. Then, the membrane was blocked for 1 hour with 5% non-fat milk and treated with anti-eNOS, anti-PAI-1 and anti-actin antibodies, as primary antibodies, and horse radish peroxidase (HRP)-conjugated anti-rabbit IgG (Amersham) as secondary antibody, and reacted using the enhanced chemiluminescence (ECL) kit (Amersham). The reacted PVDF membrane exposed to X-ray Fuji film and developed to investigate the protein expression level.

SIRT1 gene = SIRT1 gene expression promoting effect in aged human vascular endothelial cells (RT-PCR); format: cell-based; settings: aged human vascular endothelial cells (14 PDL to 40 PDL), 20, 50 or 100 μM every other day, vs DMSO; FIG. 2
Protocol: The SIRT1 gene expression promoting effect of syringaresinol in aged human vascular endothelial cells was evaluated as follows.
Human vascular endothelial cells purchased from Lonza (Walkersville, Md., USA) were cultured using the endothelial cell growth medium EGM-2 SingleQuots (Lonza) in a 5% CO2 incubator until 70% confluency. […] The population doubling level (PDL) was calculated according to the following equation for each generation until the cell growth was stopped. The PDL value is higher in aged cells. PDL=(Log10 Y−Log10 X)/Log10 2
Y: number of cells at the end of the generation
X: number of cells at the beginning of the generation
14 PDL cells were treated with syringaresinol dissolved in DMSO at a concentration of 20, 50 or 100 μM every other day while inducing aging to 40 PDL cells. The cells of a negative control group were treated with DMSO of 1/1000 of the volume of the medium. The cells treated with each sample were washed 2 times with cold PBS and RNA was extracted using TRIzol reagent (Invitrogen). cDNA was synthesized from the extracted RNA (1 μg/μL) using a reverse transcription system (Promega). Subsequently, the expression pattern of the SIRT1 and GAPDH genes was measured using the synthesized cDNA and predesigned primers and probes (Applied Biosystems; SIRT1, Hs01009006_m1; GAPDH, Hs99999905_m1). […]

[1] = tested on: aged vascular endothelial cells (SA-β-gal); assay: Aging marker SA-β-gal staining in aged vascular endothelial cells (Cellular Senescence Assay kit); format: cell-based, human; settings: 50 μM, compared to cells treated only with DMSO
Protocol: The aging of vascular endothelial cells was induced by treating with 50 μM syringaresinol in substantially the same manner as in Test Example 1. The aged cells were washed with PBS and stained at 37° C. for 16 hours using a fixative and a stain provided together with the Cellular Senescence Assay kit (Cell Biolabs, Inc., San Diego, Calif., USA). Next day, the cells were washed with PBS, overlaid with 20% glycerol solution and observed under a microscope. The number of the cells stained green was counted and the activity of the aging marker SA-β-gal was determined.

telomerase = assay: Telomerase activity in aged vascular endothelial cells (TeloTAGGG telomerase PCR ELISA Plus kit); format: cell-based, human; settings: 50 μM, compared to cells treated only with DMSO, FIG. 5
Protocol: The aging of vascular endothelial cells was induced by treating with 50 μM syringaresinol or DMSO as control in substantially the same manner as in Test Example 1. The aged cells were washed with PBS and lysed using lysis buffer (Sigma), and the obtained protein was quantitated. Telomerase activity was evaluated using the TeloTAGGG telomerase PCR ELISA Plus kit (Roche Applied Science, Indianapolis, Ind., USA).

eNOS = eNOS protein expression in aged vascular endothelial cells (Western blot); format: cell-based, human; settings: 50 μM, vs DMSO and young cells, FIG. 6
Protocol: as §1

COc1cc(C2OCC3C(c4cc(OC)c(O)c(OC)c4)OCC23)cc(OC)c1O (stereo not drawn) [syringaresinol]
PAI-1 expression (PAI-1): decreased PAI-1 expression comparable to that of young cells
SIRT1 gene expression (SIRT1 gene): increases the decreased SIRT1 expression in aged vascular endothelial cells in a concentration-dependent manner
number of green-stained (SA-β-gal) cells ([1]; FIG. 3 and 4): remarkably smaller number of green-stained cells
decrease of SA-β-gal activity ([1]; FIG. 4): ~50%
increase of telomerase activity (telomerase): about 30%
eNOS expression (eNOS): increased eNOS expression comparable to that of young cells
